Twelve molecules from patent publication US12486267B2, “Imidazo[1,2-A]pyridine and [1,2,4]triazolo[1,5-A]pyridine derivatives as TLR9 inhibitors for the treatment of fibrosis” (BRISTOL-MYERS SQUIBB COMPANY, priority 2020, dated 2025) can be followed below.

Where only a bound is given, the exact number is not on record here.

What all share (type): cell-based
In one test the target is T1, human TLR7 (Homo sapiens, UniProt Q9NYK1).
T1 sequence (Q9NYK1 27-1049): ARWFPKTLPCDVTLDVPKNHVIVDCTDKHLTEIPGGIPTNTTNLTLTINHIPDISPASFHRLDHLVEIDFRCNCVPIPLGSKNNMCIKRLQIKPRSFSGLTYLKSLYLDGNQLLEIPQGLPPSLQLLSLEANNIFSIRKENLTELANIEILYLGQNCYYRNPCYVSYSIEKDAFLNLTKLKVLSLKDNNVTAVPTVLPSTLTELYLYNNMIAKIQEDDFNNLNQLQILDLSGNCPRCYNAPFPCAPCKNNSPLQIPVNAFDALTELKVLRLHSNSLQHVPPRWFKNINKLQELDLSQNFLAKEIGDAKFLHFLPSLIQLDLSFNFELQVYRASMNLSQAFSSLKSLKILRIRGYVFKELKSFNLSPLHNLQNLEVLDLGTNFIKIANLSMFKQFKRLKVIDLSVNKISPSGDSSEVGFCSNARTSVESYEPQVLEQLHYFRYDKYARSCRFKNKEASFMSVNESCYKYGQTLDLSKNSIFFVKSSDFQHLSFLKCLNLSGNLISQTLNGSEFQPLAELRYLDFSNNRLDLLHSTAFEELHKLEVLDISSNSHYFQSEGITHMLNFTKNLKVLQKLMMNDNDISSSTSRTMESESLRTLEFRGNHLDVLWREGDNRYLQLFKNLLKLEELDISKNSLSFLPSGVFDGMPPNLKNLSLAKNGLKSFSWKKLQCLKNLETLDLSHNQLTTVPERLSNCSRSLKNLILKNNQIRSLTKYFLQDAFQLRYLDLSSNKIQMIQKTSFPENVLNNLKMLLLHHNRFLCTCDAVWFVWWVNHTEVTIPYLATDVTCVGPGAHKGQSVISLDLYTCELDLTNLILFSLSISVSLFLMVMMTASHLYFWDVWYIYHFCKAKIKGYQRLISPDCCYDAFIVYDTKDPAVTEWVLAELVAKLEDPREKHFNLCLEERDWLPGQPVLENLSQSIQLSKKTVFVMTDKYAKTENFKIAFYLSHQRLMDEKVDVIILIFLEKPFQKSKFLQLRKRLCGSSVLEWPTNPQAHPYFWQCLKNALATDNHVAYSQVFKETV
Put plainly: TLR7 inhibition reporter assay (HEK-Blue cells, SEAP reporter). The conditions noted are these: HEK-Blue cells overexpressing human TLR7; stimulated with gardiquimod 7.5 μM; 22 hour incubation; SEAP readout. A digest of the protocol:
(§1)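 HEK-Blue cells with an NF-κB/AP-1-driven SEAP reporter were pre-treated 30 min at room temperature with compound (0.05 nM–50 μM), then stimulated with gardiquimod 7.5 μM (TLR7), R848 15.9 μM (TLR8) or ODN2006 5 nM (TLR9). After 22 h at 37 °C, SEAP was read; % inhibition was referenced to agonist+DMSO and known-inhibitor wells.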
A general note: Reporter assays use an easily measured gene product as a stand-in for the process of interest.

The target in a further test is T2, human TLR9 (Homo sapiens, UniProt Q9NR96).
T2 sequence (Q9NR96 26-1032): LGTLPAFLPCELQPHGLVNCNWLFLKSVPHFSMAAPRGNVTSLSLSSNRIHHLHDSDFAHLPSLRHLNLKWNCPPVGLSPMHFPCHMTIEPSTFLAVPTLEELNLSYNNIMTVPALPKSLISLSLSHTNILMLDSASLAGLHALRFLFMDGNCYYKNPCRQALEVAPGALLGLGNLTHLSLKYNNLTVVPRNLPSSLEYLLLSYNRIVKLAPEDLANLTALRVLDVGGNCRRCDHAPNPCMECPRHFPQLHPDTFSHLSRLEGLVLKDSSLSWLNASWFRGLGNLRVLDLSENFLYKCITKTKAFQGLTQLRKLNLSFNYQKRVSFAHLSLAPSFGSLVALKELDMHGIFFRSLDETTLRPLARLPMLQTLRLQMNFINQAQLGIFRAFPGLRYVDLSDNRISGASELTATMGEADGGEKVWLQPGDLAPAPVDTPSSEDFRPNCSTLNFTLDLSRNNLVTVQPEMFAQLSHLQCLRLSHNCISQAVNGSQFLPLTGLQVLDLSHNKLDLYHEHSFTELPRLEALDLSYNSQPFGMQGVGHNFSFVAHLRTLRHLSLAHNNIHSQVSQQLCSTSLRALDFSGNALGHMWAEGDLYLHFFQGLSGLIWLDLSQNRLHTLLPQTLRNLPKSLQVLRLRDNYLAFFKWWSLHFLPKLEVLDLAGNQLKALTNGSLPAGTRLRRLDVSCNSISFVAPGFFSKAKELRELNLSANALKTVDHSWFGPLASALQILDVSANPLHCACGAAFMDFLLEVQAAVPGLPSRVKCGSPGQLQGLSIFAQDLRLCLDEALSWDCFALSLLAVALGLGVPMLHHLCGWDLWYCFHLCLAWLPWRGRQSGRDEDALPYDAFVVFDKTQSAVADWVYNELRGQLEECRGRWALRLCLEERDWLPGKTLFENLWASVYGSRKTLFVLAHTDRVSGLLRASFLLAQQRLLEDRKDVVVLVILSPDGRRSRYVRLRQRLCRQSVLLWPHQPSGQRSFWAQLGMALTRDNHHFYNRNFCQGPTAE
The experiment in a line: TLR9 inhibition reporter assay (HEK-Blue cells, SEAP reporter). To be noted: HEK-Blue cells overexpressing human TLR9; stimulated with ODN2006 5 nM; 22 hour incubation; SEAP readout. A digest of the protocol: as §1

In another test the target is T3, human TLR8 (Homo sapiens, UniProt Q9NR97).
T3 sequence (Q9NR97 27-1041): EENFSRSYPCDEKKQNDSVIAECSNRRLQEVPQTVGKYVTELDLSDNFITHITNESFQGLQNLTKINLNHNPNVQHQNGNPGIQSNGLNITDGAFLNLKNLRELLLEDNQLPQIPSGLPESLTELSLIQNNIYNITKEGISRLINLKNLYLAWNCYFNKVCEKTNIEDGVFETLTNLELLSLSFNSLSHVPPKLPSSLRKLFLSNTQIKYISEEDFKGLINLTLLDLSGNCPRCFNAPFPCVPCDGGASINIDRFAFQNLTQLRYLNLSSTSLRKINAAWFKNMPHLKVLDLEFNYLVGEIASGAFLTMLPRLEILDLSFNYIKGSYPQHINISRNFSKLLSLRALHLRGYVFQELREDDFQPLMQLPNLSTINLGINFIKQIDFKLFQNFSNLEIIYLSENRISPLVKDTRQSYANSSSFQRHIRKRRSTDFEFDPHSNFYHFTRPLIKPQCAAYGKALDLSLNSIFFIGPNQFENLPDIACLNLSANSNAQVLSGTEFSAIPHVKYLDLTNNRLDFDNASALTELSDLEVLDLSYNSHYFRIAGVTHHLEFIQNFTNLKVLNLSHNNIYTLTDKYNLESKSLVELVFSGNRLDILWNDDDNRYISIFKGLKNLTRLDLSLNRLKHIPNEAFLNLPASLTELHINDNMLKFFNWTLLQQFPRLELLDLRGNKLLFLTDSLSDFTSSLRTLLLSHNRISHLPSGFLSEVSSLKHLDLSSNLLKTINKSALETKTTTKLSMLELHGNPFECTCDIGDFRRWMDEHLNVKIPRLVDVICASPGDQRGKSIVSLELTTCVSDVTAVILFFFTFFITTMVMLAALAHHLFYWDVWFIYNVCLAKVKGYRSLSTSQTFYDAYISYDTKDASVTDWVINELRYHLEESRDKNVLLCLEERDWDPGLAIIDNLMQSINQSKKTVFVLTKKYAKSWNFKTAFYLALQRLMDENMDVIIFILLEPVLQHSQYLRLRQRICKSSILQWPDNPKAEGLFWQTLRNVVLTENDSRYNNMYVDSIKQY
The experiment in a line: TLR8 inhibition reporter assay (HEK-Blue cells, SEAP reporter). To be noted: HEK-Blue cells overexpressing human TLR8; stimulated with R848 15.9 μM; 22 hour incubation; SEAP readout. The essentials:
as §1

As to `COc1ccc(-c2cn3cc(C4CCN(C5CC6(C5)CN(CC(C)C)C6)CC4)cc(C)c3n2)cc1OC` [Example 15, 2-(3,4-dimethoxyphenyl)-6-(1-(2-isobutyl-2-azaspiro[3.3]heptan-6-yl)piperidin-4-yl)-8-methylimidazo[1,2-a]pyridine], the IC50 – broadly, the midpoint of a concentration-inhibition curve – at human TLR7 was 46 µM; against human TLR9, 0.047 µM; at human TLR8, more than 50 µM.
Consider `CS(=O)(=O)c1ccc(-c2cn3cc(C4CCN(C5CCCN(C6CCOCC6)CC5)CC4)cc(F)c3n2)cc1` (single isomer, unassigned) [Example 129, 8-fluoro-2-(4-(methylsulfonyl)phenyl)-6-(1-(1-(tetrahydro-2H-pyran-4-yl)azepan-4-yl)piperidin-4-yl)imidazo[1,2-a]pyridine], for which the IC50 is more than 50 µM on human TLR7, 0.02 µM on human TLR9 and more than 50 µM on human TLR8.
As to `COc1ccc(-c2cn3c(n2)CCC(C2CCN(C4CCN(C(C)C)CC4)CC2)C3)cc1OC` (racemic) [Example 34, 2-(3,4-dimethoxyphenyl)-6-(1′-isopropyl-[1,4′-bipiperidin]-4-yl)-5,6,7,8-tetrahydroimidazo[1,2-a]pyridine], the IC50 on human TLR7 was 12 µM; against human TLR9, 0.037 µM; at human TLR8 it was more than 50 µM.
Turning to `CC(C)CN1CCC(N2CCC(c3ccc4nc(-c5ccc(S(C)(=O)=O)cc5)cn4c3F)CC2)CC1` [Example 131, 5-fluoro-6-(1′-isobutyl-[1,4′-bipiperidin]-4-yl)-2-(4-(methylsulfonyl)phenyl) imidazo[1,2-a]pyridine], the concentration for half-maximal inhibition (IC50) turned out to be 18.1 µM at human TLR7, 0.058 µM against human TLR9 and 16.7 µM at human TLR8.
For `COc1ccc(-c2cn3c(n2)CCC(C2CCN(C4CCN(C(=O)C5CC5)CC4)CC2)C3)cc1OC` (single isomer, unassigned) [Example 43, cyclopropyl(4-(2-(3,4-dimethoxyphenyl)-5,6,7,8-tetrahydroimidazo[1,2-a]pyridin-6-yl)-[1,4′-bipiperidin]-1′-yl)methanone] the same measures were 45 µM, 0.375 µM and more than 50 µM.
As to `COc1ccc(-c2cn3cc(C4CC5CCC(C4)N5C4CCN(C5CC5)CC4)cc(C)c3n2)cc1OC` (single isomer, unassigned) [Example 26, 6-(8-(1-cyclopropylpiperidin-4-yl)-8-azabicyclo[3.2.1]octan-3-yl)-2-(3,4-dimethoxyphenyl)-8-methylimidazo[1,2-a]pyridine], the IC50 on human TLR7 was 2 µM; at human TLR9, 0.086 µM; on human TLR8 it was more than 50 µM.
For `CS(=O)(=O)c1ccc(-c2cn3cc(C4CCN(C5CC6CCC(C5)N6C5CCC5)CC4)cc(F)c3n2)cc1` (single isomer, unassigned) [Example 117, 6-(1-(8-cyclobutyl-8-azabicyclo[3.2.1]octan-3-yl)piperidin-4-yl)-8-fluoro-2-(4-(methylsulfonyl)phenyl)imidazo[1,2-a]pyridine] the same measures were 1.5 µM, 0.022 µM and 20 µM.
`CS(=O)(=O)c1ccc(-c2cn3cc(C4CCN(C5CC6CCC(C5)N6C5COC5)CC4)cc(F)c3n2)cc1` (single isomer, unassigned) [Example 119, 8-fluoro-2-(4-(methylsulfonyl)phenyl)-6-(1-(8-(oxetan-3-yl)-8-azabicyclo[3.2.1]octan-3-yl)piperidin-4-yl)imidazo[1,2-a]pyridine]: the IC50 against human TLR7 was 10.6 µM; at human TLR9 it was 0.03 µM; on human TLR8, more than 50 µM.
For `COc1ccc(-c2cn3c(n2)CCC(C2CCN(C4CCN(C(=O)C(C)C)CC4)CC2)C3)cc1OC` (single isomer, unassigned) [Example 41, 1-(4-(2-(3,4-dimethoxyphenyl)-5,6,7,8-tetrahydroimidazo[1,2-a]pyridin-6-yl)-[1,4′-bipiperidin]-1′-yl)-2-methylpropan-1-one], the IC50 on human TLR7 was more than 50 µM; against human TLR9, 0.161 µM; against human TLR8 it was more than 50 µM.
`CC(C)N1CCC(N2CCC(c3cn4cc(-c5ccc(S(C)(=O)=O)cc5)nc4cc3F)CC2)CC1` [Example 70, 7-fluoro-6-(1′-isopropyl-[1,4′-bipiperidin]-4-yl)-2-(4-(methylsulfonyl)phenyl) imidazo[1,2-a]pyridine]: the IC50 at human TLR7 is 22.9 µM; against human TLR9 it was 0.303 µM; against human TLR8 it was more than 50 µM.
As for `COc1ccc(-c2cn3cc(-c4ccc(N5CCN(C6COC6)CC5)cc4)cc(C)c3n2)cc1OC` [Example 64, 2-(3,4-dimethoxyphenyl)-8-methyl-6-(4-(4-(oxetan-3-yl)piperazin-1-yl)phenyl) imidazo[1,2-a]pyridine], the IC50 at human TLR7 was more than 25 µM; at human TLR9 it was 2.38 µM; against human TLR8 it was more than 25 µM.
Take `COc1ccc(-c2nc3cc(C4CCN(C5CCN(C(C)C)CC5)CC4)ccn3n2)cc1OC` [Example 60, 2-(3,4-dimethoxyphenyl)-7-(1′-isopropyl-[1,4′-bipiperidin]-4-yl)-[1,2,4]triazolo[1,5-a]pyridine]: the IC50 against human TLR7 was 29 µM; against human TLR9, 1.1 µM; at human TLR8, more than 50 µM.
